Where two headings read alike, the source gives them in different places.
Test system: panel of nearly 500 cancer cell lines
Experiment: Cancer Cell Line Encyclopedia profiling, 3-day CellTiter-Glo
Assay type: cell-based
Settings: read-out: IC50

CC(=O)c1c(C)c2cnc(Nc3ccc(N4CCNCC4)cn3)nc2n(C2CCCC2)c1=O [Palbociblib]
IC50 (22rv1 (prostate)): > 8 µM | IC50 (639v (urinary_tract)): > 8 µM | IC50 (769p (kidney)): 6.7 µM | IC50 (5637 (urinary_tract)): > 8 µM | IC50 (8305c (thyroid)): 5.34 µM | IC50 (8505c (thyroid)): > 8 µM | IC50 (a172 (central_nervous_system)): > 8 µM | IC50 (a204 (soft_tissue)): > 8 µM | IC50 (a253 (salivary_gland)): > 8 µM | IC50 (a375 (skin)): > 8 µM | IC50 (a549 (lung)): > 8 µM | IC50 (a673 (bone)): > 8 µM | IC50 (a2058 (skin)): > 8 µM | IC50 (a2780 (ovary)): > 8 µM | IC50 (amo1 (haematopoietic_and_lymphoid_tissue)): > 8 µM | IC50 (an3ca (endometrium)): 7.05 µM | IC50 (aspc1 (pancreas)): > 8 µM | IC50 (au565 (breast)): 7.56 µM | IC50 (az521 (stomach)): > 8 µM | IC50 (bdcm (haematopoietic_and_lymphoid_tissue)): 1.92 µM | IC50 (bftc909 (kidney)): > 8 µM | IC50 (bgc823 (stomach)): > 8 µM | IC50 (bl41 (haematopoietic_and_lymphoid_tissue)): > 8 µM | IC50 (bl70 (haematopoietic_and_lymphoid_tissue)): 4.53 µM | IC50 (bt20 (breast)): > 8 µM | IC50 (bt474 (breast)): > 8 µM | IC50 (bt549 (breast)): > 8 µM | IC50 (c2bbe1 (large_intestine)): > 8 µM | IC50 (c3a (liver)): > 8 µM | IC50 (c32 (skin)): > 8 µM | IC50 (caki2 (kidney)): > 8 µM | IC50 (cal27 (upper_aerodigestive_tract)): > 8 µM | IC50 (cal78 (bone)): > 8 µM | IC50 (cal851 (breast)): > 8 µM | IC50 (calu1 (lung)): > 8 µM | IC50 (calu3 (lung)): > 8 µM | IC50 (cama1 (breast)): > 8 µM | IC50 (capan2 (pancreas)): > 8 µM | IC50 (cas1 (central_nervous_system)): > 8 µM | IC50 (cell line tyknu, ovary): > 8 µM | IC50 (cell line u87mg, central_nervous_system): > 8 µM | IC50 (cell line u118mg, central_nervous_system): > 8 µM | IC50 (cell line u2os, bone): > 8 µM | IC50 (cell line u937, haematopoietic_and_lymphoid_tissue): > 8 µM | IC50 (cell line uacc812, breast): > 8 µM | IC50 (cell line umuc3, urinary_tract): > 8 µM | IC50 (cell line vmrclcd, lung): 1.86 µM | IC50 (cell line vmrcrcw, kidney): > 8 µM | IC50 (cell line vmrcrcz, kidney): > 8 µM | IC50 (cell line ykg1, central_nervous_system): 7.34 µM | IC50 (cell line zr7530, breast): > 8 µM | IC50 (chl1 (skin)): > 8 µM | IC50 (ci1 (haematopoietic_and_lymphoid_tissue)): 6.5 µM | IC50 (cmk (haematopoietic_and_lymphoid_tissue)): 5.49 µM | IC50 (colo201 (large_intestine)): 1.48 µM | IC50 (colo205 (large_intestine)): 7.19 µM | IC50 (colo320 (large_intestine)): 6.83 µM | IC50 (colo679 (skin)): > 8 µM | IC50 (corl23 (lung)): > 8 µM | IC50 (corl23cpr (lung)): > 8 µM | IC50 (cov318 (ovary)): > 8 µM | IC50 (cov504 (ovary)): > 8 µM | IC50 (daoy (central_nervous_system)): > 8 µM | IC50 (dbtrg05mg (central_nervous_system)): > 8 µM | IC50 (detroit562 (upper_aerodigestive_tract)): 3.17 µM | IC50 (dkmg (central_nervous_system)): > 8 µM | IC50 (dms114 (lung)): > 8 µM | IC50 (dov13 (ovary)): > 8 µM | IC50 (du145 (prostate)): > 8 µM | IC50 (eb1 (haematopoietic_and_lymphoid_tissue)): > 8 µM | IC50 (eb2 (haematopoietic_and_lymphoid_tissue)): > 8 µM | IC50 (ebc1 (lung)): > 8 µM | IC50 (efe184 (endometrium)): > 8 µM | IC50 (efm19 (breast)): > 8 µM | IC50 (efo21 (ovary)): > 8 µM | IC50 (efo27 (ovary)): > 8 µM | IC50 (en (endometrium)): > 8 µM | IC50 (es2 (ovary)): > 8 µM | IC50 (fadu (upper_aerodigestive_tract)): > 8 µM | IC50 (fuov1 (ovary)): > 8 µM | IC50 (g361 (skin)): > 8 µM | IC50 (g401 (soft_tissue)): > 8 µM | IC50 (gb1 (central_nervous_system)): > 8 µM | IC50 (gciy (stomach)): > 8 µM | IC50 (gct (soft_tissue)): 4.08 µM | IC50 (glc82 (lung)): > 8 µM | IC50 (gms10 (central_nervous_system)): > 8 µM | IC50 (h4 (central_nervous_system)): > 8 µM | IC50 (hcc15 (lung)): > 8 µM | IC50 (hcc56 (large_intestine)): > 8 µM | IC50 (hcc70 (breast)): > 8 µM | IC50 (hcc78 (lung)): > 8 µM | IC50 (hcc1187 (breast)): > 8 µM | IC50 (hcc1569 (breast)): > 8 µM | IC50 (hcc1806 (breast)): > 8 µM | IC50 (hcc1954 (breast)): 2.51 µM | IC50 (hcc2935 (lung)): > 8 µM | IC50 (hcc4006 (lung)): > 8 µM | IC50 (hct15 (large_intestine)): > 8 µM | IC50 (hct116 (large_intestine)): > 8 µM | IC50 (hec1a (endometrium)): > 8 µM | IC50 (hec1b (endometrium)): 4.96 µM | IC50 (hec59 (endometrium)): > 8 µM | IC50 (hec151 (endometrium)): > 8 µM | IC50 (hec251 (endometrium)): > 8 µM | IC50 (hec265 (endometrium)): > 8 µM | IC50 (hel9217 (haematopoietic_and_lymphoid_tissue)): > 8 µM | IC50 (hep3b217 (liver)): > 8 µM | IC50 (hepg2 (liver)): > 8 µM | IC50 (heya8 (ovary)): > 8 µM | IC50 (hgc27 (stomach)): 1.74 µM | IC50 (hh (haematopoietic_and_lymphoid_tissue)): > 8 µM | IC50 (hle (liver)): > 8 µM | IC50 (hlf (liver)): > 8 µM | IC50 (hmc18 (breast)): > 8 µM | IC50 (hmcb (skin)): > 8 µM | IC50 (hos (bone)): > 8 µM | IC50 (hpac (pancreas)): > 8 µM | IC50 (hs229t (lung)): > 8 µM | IC50 (hs294t (skin)): > 8 µM | IC50 (hs578t (breast)): > 8 µM | IC50 (hs683 (central_nervous_system)): > 8 µM | IC50 (hs695t (skin)): > 8 µM | IC50 (hs739t (breast)): > 8 µM | IC50 (hs746t (stomach)): > 8 µM | IC50 (hs766t (pancreas)): > 8 µM | IC50 (hs840t (upper_aerodigestive_tract)): > 8 µM | IC50 (hs852t (skin)): > 8 µM | IC50 (hs895t (skin)): 0.446 µM | IC50 (hs936t (skin)): > 8 µM | IC50 (hs939t (skin)): > 8 µM | IC50 (hs944t (skin)): > 8 µM | IC50 (hsc2 (upper_aerodigestive_tract)): > 8 µM | IC50 (ht29 (large_intestine)): > 8 µM | IC50 (ht144 (skin)): > 8 µM | IC50 (ht1080 (soft_tissue)): > 8 µM | IC50 (ht1197 (urinary_tract)): > 8 µM | IC50 (ht1376 (urinary_tract)): > 8 µM | IC50 (ht (haematopoietic_and_lymphoid_tissue)): > 8 µM | IC50 (hucct1 (biliary_tract)): > 8 µM | IC50 (huh1 (liver)): > 8 µM | IC50 (hupt3 (pancreas)): > 8 µM | IC50 (hupt4 (pancreas)): > 8 µM | IC50 (hut78 (haematopoietic_and_lymphoid_tissue)): > 8 µM | IC50 (ialm (lung)): > 8 µM | IC50 (igr37 (skin)): > 8 µM | IC50 (igr39 (skin)): > 8 µM | IC50 (igrov1 (ovary)): > 8 µM | IC50 (imr32 (autonomic_ganglia)): > 8 µM | IC50 (ipc298 (skin)): > 8 µM | IC50 (istmes1 (pleura)): > 8 µM | IC50 (istmes2 (pleura)): 0.428 µM | IC50 (j82 (urinary_tract)): > 8 µM | IC50 (jhh2 (liver)): > 8 µM | IC50 (jhh4 (liver)): > 8 µM | IC50 (jhh6 (liver)): > 8 µM | IC50 (jhos2 (ovary)): > 8 µM | IC50 (jhos4 (ovary)): > 8 µM | IC50 (jm1 (haematopoietic_and_lymphoid_tissue)): > 8 µM | IC50 (jmsu1 (urinary_tract)): > 8 µM | IC50 (k029ax (skin)): > 8 µM | IC50 (kals1 (central_nervous_system)): > 8 µM | IC50 (karpas299 (haematopoietic_and_lymphoid_tissue)): 7.35 µM | IC50 (karpas422 (haematopoietic_and_lymphoid_tissue)): > 8 µM | IC50 (ke39 (stomach)): 3.54 µM | IC50 (ke97 (haematopoietic_and_lymphoid_tissue)): 2.59 µM | IC50 (kg1 (haematopoietic_and_lymphoid_tissue)): > 8 µM | IC50 (kle (endometrium)): > 8 µM | IC50 (kmbc2 (urinary_tract)): > 8 µM | IC50 (kmrc1 (kidney)): > 8 µM | IC50 (kms12bm (haematopoietic_and_lymphoid_tissue)): > 8 µM | IC50 (kms26 (haematopoietic_and_lymphoid_tissue)): 1.67 µM | IC50 (kns42 (central_nervous_system)): > 8 µM | IC50 (kns60 (central_nervous_system)): > 8 µM | IC50 (kp1n (pancreas)): > 8 µM | IC50 (kp1nl (pancreas)): > 8 µM | IC50 (kp2 (pancreas)): > 8 µM | IC50 (kp3 (pancreas)): > 8 µM | IC50 (kp4 (pancreas)): > 8 µM | IC50 (ku812 (haematopoietic_and_lymphoid_tissue)): 6.25 µM | IC50 (kyse30 (oesophagus)): > 8 µM | IC50 (kyse410 (oesophagus)): > 8 µM | IC50 (kyse520 (oesophagus)): > 8 µM | IC50 (l33 (pancreas)): > 8 µM | IC50 (lc1sqsf (lung)): > 8 µM | IC50 (lclc103h (lung)): > 8 µM | IC50 (ln18 (central_nervous_system)): > 8 µM | IC50 (ln229 (central_nervous_system)): > 8 µM | IC50 (lounh91 (lung)): > 8 µM

— article PMC6219668 (Oncotarget, 2018)
